Entries after “also recorded” stand apart in the source; their conditions may differ.
How the values were obtained:
[1] = system: 4T1 triple negative breast cancer cells; test: 4T1 cell proliferation in vitro, Incucyte live-cell confluence; assay type: cell-based, mouse; conditions: 10, 100, 1000 nM, presence or absence of estradiol-17β, 5 days
Procedure: FIGS. 23A-23C show estrogen effects on ERα negative tumor growth in vitro and in vivo. […] Female 6-wk-old BALB/c mice, either ovariectomized (ovx) or sham-operated (intact), were inoculated s.c. with 2×10^5 4T1 TNBC cells. Tumor growth was then assessed every 3 days, with tumor volume calculated as V=(l×w×w)/2. ****P≤0.0001. […] 4T1 cells were grown in the presence (+E2) or absence (−E2) of estradiol-17β and increasing concentrations of SERD128 at 10 nM (128-10), 100 nM (128-100) or 1000 nM (128-1000). Cell proliferation was assessed using the Incucyte S3 Live-Cell Analysis system with pictures obtained every 4-6 hours. […] Tumors were measured every 3 days, and tumor volume was calculated as V=(W(2)×L)/2). **P<0,01, ****P<0.0001 as compared to control group. n=11-12.
MCF-7 and other selected BC cells were seeded in 96-well plates at […] in complete medium. […] Cell number and viability were determined by either cell counts or by colorimetric assays using the CELLTITER 96 AQUEOUS (Promega) assay or the cell proliferation ELISA BrdU assay (Roche) as per manufacturer's instructions. […] In selected experiments using the INCUCYTE™ Live Cell System (Essen Bioscience) as per the manufacturer's instructions, the proliferation of 4T1 cells maintained in a tissue culture incubator was monitored by using the NucLight Rapid Red Reagent for cell labeling in 6-well plates. […]

[2] = system: MCF-7 human breast tumor xenografts; test: MCF-7 human breast tumor xenografts in nude mice; assay type: in vivo; conditions: 15 and 75 mg/kg once a day by oral gavage for 28 days
[3] = system: STAT3; test: Phosphorylated STAT3 in G-MDSC subpopulations, flow cytometry; assay type: cell-based, human; conditions: 1 μM in normal medium with GM-CSF and IL6, 6 days
Procedure: Bone marrow cells from three breast cancer patients were incubated with GM-CSF and IL6 in the following groups: normal medium (contains estradiol) in the presence of vehicle (CON), 1 μM fulvestrant (FULV) or 1 μM S128. After 6 days, cells were subjected to flow cytometry using an antibody directed to phosphorylated STAT3 (p-STAT; 1).
FIGS. 22A-22B show expansion of MDSCs is dependent on estrogen signaling and reversed by antiestrogens. […] Retrospectively-collected BM cells from de-identified BC patients were purified by established methods including red blood cell lysis and Ficoll gradients and then incubated with GM-CSF and IL-6 for 6 days in either regular RPMI medium+15% FBS (NM) (contains estrogens), NM with antiestrogens (FULV or SERD128) or in phenol red-free medium with 15% charcoal coated-dextran treated FBS (EFM) (estrogen-depleted) with or without the addition of 100 nM estradiol-17β (EFM+E2). […]
Human myeloid-derived suppressor cells were expanded from bone marrow (BM) specimens of BC patients after standard Ficoll gradient purification and red blood cell lysis. […] After 6 days of culture, cells were harvested, stained with a 14 antibody panel including anti-phospho-STAT3 (pSTAT3) and analyzed by flow cytometry with an LSRII with a 5 lasers (UV, violet, blue, green-yellow and red). […]

C[C@]12C[C@H](Oc3ccc(N)c(C(F)(F)F)c3)[C@@H]3c4ccc(O)cc4CC[C@H]3[C@@H]1CC[C@@H]2O [SERD128, (8S,9S,11S,13S,14S,17S)-11-(4-Amino-3-(trifluoromethyl)phenoxy)-13-methyl-7,8,9,11,12,13,14,15,16,17-decahydro-6H-cyclopenta[a]phenanthrene-3,17-diol]
4T1 cell proliferation (phase object confluence) [1]: No significant differences were observed in cell proliferation; also recorded: did not elicit any significant effect on cell growth in vitro
tumor growth (tumor volume) [2]: inhibits growth of human breast tumor xenografts in vivo; also recorded: significantly inhibited tumor growth in MCF-7 xenograft models in a dose-dependent manner; also recorded: inhibit the growth of human MCF-7 breast tumor xenografts in vivo in a dose-dependent manner; also recorded: potent biologic action in blocking the progression of breast tumors in vivo via an oral route of administration
p-STAT3 median fluorescence intensity in G-MDSC [3]: blocks phosphorylation/activation of STAT3; also recorded: especially effective in blocking the phosphorylation and activation of STAT3
p-STAT3 median fluorescence intensity in G-MDSC ([3]; listed as S128): blocks phosphorylation/activation of STAT3; also recorded: inhibits the STAT signaling pathway
